Measurements published in US8389544B2, “Isoquinolone compounds as subtype-selective agonists for melatonin receptors MT1 and MT2” (The Hong Kong University of Science and Technology, priority 2007, dated 2013).
Like-named read-outs stand apart in the source and are kept apart here.

What was measured:
MT1 receptor = MT1 receptor (Homo sapiens, UniProt P48039); assay: FLIPR Ca2+ mobilization assay, MT1; type: cell-based; parameters: expressed in transfected cells; host or cells: COS-7 (monkey kidney fibroblast); conditions: for % Response of 2-IMT: MT1, relative to 2-IMT response
MT1 receptor, sequence (P48039 whole entry): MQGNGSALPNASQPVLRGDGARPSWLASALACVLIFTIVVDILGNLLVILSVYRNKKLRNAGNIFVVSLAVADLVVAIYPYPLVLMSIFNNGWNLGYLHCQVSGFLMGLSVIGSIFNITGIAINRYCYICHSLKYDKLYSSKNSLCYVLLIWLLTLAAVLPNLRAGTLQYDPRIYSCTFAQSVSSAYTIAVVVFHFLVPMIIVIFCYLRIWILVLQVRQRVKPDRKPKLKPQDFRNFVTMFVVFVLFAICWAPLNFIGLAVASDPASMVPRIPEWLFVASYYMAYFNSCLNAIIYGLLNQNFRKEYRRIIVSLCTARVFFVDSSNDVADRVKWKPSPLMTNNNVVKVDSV
Protocol: (§1) 1. FLIPR Ca^2+ Mobilization Assay
(§2) This assay indicates the ability of the novel compounds to activate MT1 and MT2 receptors by measuring downstream events of the activated receptor, in this case intracellular calcium mobilization.
(§3) 1. Intracellular Ca^2+ Mobilization Assay Using Fluorometric Imaging Plate Reader (FLIPR®)
(§4) An intracellular calcium mobilization assay was performed to screen the isoquinolone compounds against the two melatonin receptor subtypes, MT1 and MT2 on the fluorometric imaging plate reader (FLIPR®). In order to facilitate the screening process in a high-throughput manner, chimeric G proteins with the ability to couple to a range of GPCR as well as activate intracellular Ca^2+ were employed. The melatonin receptor subtype (either MT1 or MT2) was co-expressed with the G-protein chimeras in COS-7 (monkey kidney fibroblast) cells. During the assay, cells were exposed to the novel isoquinolone compounds and the corresponding change in fluorescence was measured. Both single point and dose-dependant assays were performed for each isoquinolone compound and based on the latter a dose response curve was generated and the corresponding EC50 for each receptor subtype determined.
(§5) Specifically, COS-7 cells were seeded at a density of 20,000 cells/well into 96-well plates designed for FLIPR assays, using Opti-MEM with 10% FCS at a volume of 100 μl/well. Transfection was carried out using Lipofectamine 2000® reagent. In each well, 0.2 μg of the GPCR and G protein cDNA were diluted with 25 μl of Opti-MEM and 0.2 μl of Lipofectamine 2000® was diluted with another 25 μl of Opti-MEM. They were added to appropriate wells after the two components were mixed for 20 min.
(§6) After 48 hours of incubation post-transfection, 50 μl of the transfection medium was removed from each well followed by the labelling of transfected cells with 100 μl of 2 μM Fluo-4 in calcium containing HBSS (Hank's balanced salt solution) with 20 mM HEPES (N-[2-hydroxyethyl]piperazine—N′-[2-ethanesulfonic acid]; pH 7.5) and 2.5 mM probenecid (anion exchanger inhibitor, freshly prepared) for 1 hour at 37° C. 70 μl of 3× drugs (isoquinolinone compounds encompassing the invention) were prepared and aliquoted into the corresponding wells in the V-well drug plate. Changes in fluorescence were detected in the FLIPR 96 with an excitation wavelength of 488 nm. The background fluorescence was adjusted to the range of 8,000 to 12,000 units by altering the laser power and exposure time (typically 0.4 W and 0.4 sec, respectively) for the FLIPR setup. 50 μl of each agonist solution was added to the corresponding wells and the fluorescent emission (between 510 and 560 nm) was monitored for 3 min. Results were expressed as change in fluorescent intensity units (FIU). Concentration-response curves were generated by determining the maximal change in FIU of each data set. Numerical analysis of the statistics and EC50 (median effective concentration) values were performed on GraphPad Prism version 3.03.
(§7) Then the intracellular Ca^2+ mobilization assays using the Fluorometric Imaging Plate Reader (FLIPR®) were performed as described above.

MT2 receptor = target: T1, MT2 receptor (Homo sapiens, UniProt P49286); assay: FLIPR Ca2+ mobilization assay, MT2; type: cell-based; parameters: expressed in transfected cells; host or cells: COS-7 (monkey kidney fibroblast); conditions: for Emax: read-out: % Response of 2-IMT; for agonist character / receptor subtype selectivity in words: FLIPR results, MT1 versus MT2; for % Response of 2-IMT: MT2, relative to 2-IMT response
T1 sequence (P49286 1-362): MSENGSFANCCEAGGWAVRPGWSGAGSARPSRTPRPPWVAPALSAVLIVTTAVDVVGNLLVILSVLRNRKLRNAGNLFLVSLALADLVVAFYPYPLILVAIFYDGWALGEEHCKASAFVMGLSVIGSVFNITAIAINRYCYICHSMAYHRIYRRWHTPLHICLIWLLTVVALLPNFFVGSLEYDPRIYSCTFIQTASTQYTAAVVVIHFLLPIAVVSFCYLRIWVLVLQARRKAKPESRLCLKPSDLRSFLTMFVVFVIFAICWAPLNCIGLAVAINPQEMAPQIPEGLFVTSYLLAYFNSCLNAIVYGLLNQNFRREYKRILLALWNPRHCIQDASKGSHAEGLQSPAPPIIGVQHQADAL
Protocol: as §1, §2, §3, §4, §5, §6, §7

[1] = Table 1, MT1 in COS-7 cells with chimeric G protein, log value, negative, NSR = no significant response, read-out: Log(EC50) ± SEM (converted)
[2] = Table 1, MT2 in COS-7 cells with chimeric G protein, log value, negative, NSR = no significant response
[3] = Table 1, MT2 in COS-7 cells with chimeric G protein, log value, negative, NSR = no significant response, read-out: Log(EC50) ± SEM (converted)
[4] = Table 1, MT1 in COS-7 cells with chimeric G protein, log value, negative, NSR = no significant response

SMILES	% Response of 2-IMT (MT1 receptor; Table 1) [%]	Log(EC50) ± SEM (MT2 receptor; [2])	EC50 (MT2 receptor; [3]) [nM]	Emax (MT2 receptor) [%]	Log(EC50) ± SEM (MT1 receptor; [4])	further results
COc1cc2c(=O)n(C)ccc2cc1O [IS001, 6-Hydroxyl-7-methoxyl-2-methyl-1(2H)-isoquinolone]	71.9	NSR				EC50 (MT1 receptor; [1]): 1580 nM
COc1cc2ccn(C)c(=O)c2cc1O [IS002, 7-hydroxyl-6-methoxyl-2-methyl-1(2H)-isoquinolone]	31.7		871	47		EC50 (MT1 receptor; [1]): 1740 nM
COc1cc2ccn(C)c(=O)c2cc1OCc1ccccc1 [IS003]		NSR			NSR	
COc1ccc2c(=O)n(C)ccc2c1OCc1ccccc1 [IS005]	30.5			62.9		activity / activation at MT1 compared to 2-IMT (MT1 receptor; running text b158, b160): 31%; EC50 (MT1 receptor; running text b158, read-out: EC50 MT1): 5.81 nM; activity / efficacy at MT2 compared to 2-IMT (MT2 receptor): 63%; agonist character / receptor subtype selectivity in words (MT2 receptor): partial agonist; EC50 (MT2 receptor; read-out: EC50 MT2): 48.5 nM
C=CCOc1c(OC)ccc2c(=O)n(C)ccc12 [IS007]			3.47	49.1	NSR	EC50 (MT2 receptor; read-out: EC50 MT2): 3.51 nM
COc1ccc2c(=O)n(C)ccc2c1OCCCc1ccccc1 [IS008]			562	57.6	NSR	agonist character / receptor subtype selectivity in words (MT2 receptor): activated MT2 only
COc1ccc2c(=O)n(C)ccc2c1OCc1ccc(Br)cc1 [IS009]			123	37.4	NSR	agonist character / receptor subtype selectivity in words (MT2 receptor): activated MT2 only
COc1ccc(C(=O)COc2c(OC)ccc3c(=O)n(C)ccc23)cc1 [IS010]		−6.35 ± 0.06			NSR	% Response of 2-IMT (MT2 receptor; Table 1): 53.0%
COc1cc2ccn(C)c(=O)c2cc1OCCCc1ccccc1 [IS013]	75.0	−6.00 ± 0.01			−5.22 ± 1.28	% Response of 2-IMT (MT2 receptor; Table 1): 101.9%
COc1cc2c(=O)n(C)ccc2cc1OCc1ccccc1 [IS016]	65.3		2750	145		EC50 (MT1 receptor; [1]): 1350 nM
COc1cc2c(=O)n(C)ccc2cc1OCCCc1ccccc1 [IS017]			107	107	NSR	
COc1ccc(O)c2c(=O)n(C)ccc12 [IS030]	67.5	−5.52			−5.98 ± 0.04	% Response of 2-IMT (MT2 receptor; Table 1): 39.4%
Cn1ccc2ccc(O)c(O)c2c1=O [IS037]			525	42.1	NSR	
COc1cc2ccn(C)c(=O)c2cc1OCCCCCl [IS098]			6.17	44.7	NSR	
COc1cc2ccn(C)c(=O)c2cc1OCCCI [IS101, 7-(3-iodopropyloxyl)-6-methoxyl-2-methyl-1(2H)-isoquinolone]			603	65.8	NSR	
COc1ccc2c(=O)n(C)ccc2c1OCc1ccc(C(C)(C)C)cc1 [IS532]		−5.57 ± 0.75			NSR	% Response of 2-IMT (MT2 receptor; Table 1): 22.3%
